Test results taken from publication PMC6100724, “Proteome‐wide analysis of phospho‐regulated PDZ domain interactions” (Molecular Systems Biology, 2018).

Columns and labels:
Assay in all cases: Phosphomimetic ProP-PD selection with NGS
Scribble PDZ1 = biological target: T1, Scribble PDZ1 (Homo sapiens, UniProt Q14160); type: binding; conditions: bait Scribble PDZ1; mean of selections 1-3
T1 construct: human Scribble PDZ1 aa 719–829 in; made in house; host or cells: E. coli BL21 Gold (DE3)
Description: (§1) Phage selections were carried out for four rounds following a protocol by Huang and Sidhu (Huang & Sidhu, 2011) with minor modifications. Non‐specific binding phage was removed by pre‐selections against immobilized GST throughout the selection. The selections against the (pre‐)phosphorylated wild‐type library were performed in 50 mM HEPES (pH 7.4) and 150 mM NaCl (HBS) following the same procedure after pre‐phosphorylation of the library.
(§2) • Immobilize proteins (15 μg in 100 μl PBS) in a 96‐well MaxiSorp microtiter plate (NUNC) overnight at 4°C. • Start a 2YT culture of E. coli Omnimax supplemented with 100 μg/ml tetracycline to retain the F pilus epitope. • Block the wells with 200 μl 0.5% BSA in PBS for 2 h at 4°C. • Precipitate naïve phage library (10^11 cfu per selection) or amplified phage pool from the previous round of selection by adding one‐fifth the volume of PEG/NaCl. • Incubate on ice for 10 min, and pellet precipitated phage by centrifugation at 5,300 g for 15 min. Resuspend the phage pellet in 100 μl PBS per selection. • Add 100 μl of phage solution to the GST‐coated pre‐selection wells and incubate for 1 h. • Transfer the phage solution to the immobilized target proteins and allow it to bind for 2 h at 8°C. • Wash the plate four times with 200 μl cold wash buffer (PBS, 0.05% Tween‐20). • Elute bound phage by incubation with 100 μl log phase (0.6–0.8 OD600) E. coli Omnimax for 30 min at 37°C with shaking (200 RPM). • Add 10^12 cfu/ml M13K07 helper phage for hyperinfection of the bacteria and incubate as above for 45 min. • Transfer the bacterial culture to 10 ml 2YT supplemented with 50 μg/ml carbenicillin, 25 μg/ml kanamycin, and 300 μM IPTG and incubate overnight at 37°C while shaking. • Perform phage pool ELISA to monitor the progress of the selection as described previously (Huang & Sidhu, 2011).
(§3) The naïve library and the enriched phage pools of the third day of selection were amplified and barcoded by PCR and analyzed by NGS as described elsewhere (McLaughlin & Sidhu, 2013; Ivarsson et al, 2014). The reads were demultiplexed using the barcode sequences and filtered by discarding sequences with a Phred quality score under 30. Sequences were mapped to the original library using Bowtie (Langmead et al, 2009) with two mismatches between reads and library sequence. Nucleotide mutations leading to amino acid substitutions were subsequently removed. Cutoff values of NGS counts were assigned for each pool. PWMs were generated based on the remaining peptides (aligned on the C‐termini) using WebLogo (Crooks et al, 2004).
(§4) However, there was no significant correlation of the actual read counts (selection “strength”) and the initial representation in the library, reflecting the strong selection during phage display (wt+mimetic: P‐value: 0.49, ρ = −0.08, mimetic only: P‐value: 0.069, ρ = −0.2, wt only: P‐value: 0.12, ρ = 0.17). Consequently, the amount of reads for each binder after phage display is not a function of the amount of input reads in the naïve library and no modeling based on the input library frequencies to score the interactions is necessary. To allow for comparison between replicate selections, we used the fraction of NGS reads within a certain set, instead of the absolute number of NGS reads, as the absolute numbers differ between different NGS batches.

DLG1 PDZ2 = biological target: T2, DLG1 PDZ2 (Homo sapiens, UniProt Q12959); type: binding; conditions: mean of selections 1-3, bait DLG1 PDZ2
T2 construct: human DLG1 PDZ2 aa 311–407 in a modified pRSET vector 40; made in house; host or cells: E. coli BL21 Gold (DE3)
Description: as §1, §2, §3, §4

Scribble PDZ3 = type: binding, human; conditions: bait Scribble PDZ3
Description: as §1, §2, §3, §4

DLG1 PDZ1 = type: binding, human; conditions: mean of selections 1-3, bait DLG1 PDZ1; for Mean fraction #NGS counts mimetic peptide / total count selection: phosphomimetic peptide; for Mean fraction #NGS counts wt peptide / total counts selection: wild type peptide
Description: as §1, §2, §3, §4

Scribble PDZ2 = type: binding, human; conditions: bait Scribble PDZ2
Description: as §1, §2, §3, §4

[1] = mean of selections 1 and 2 (selection 3 empty)
[2] = mean of selections 1-3, wild type peptide

T2 sequence (Q12959 311-407): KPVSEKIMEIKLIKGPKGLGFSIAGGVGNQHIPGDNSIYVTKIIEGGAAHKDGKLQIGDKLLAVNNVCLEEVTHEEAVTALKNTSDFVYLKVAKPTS
T1 sequence (Q14160 719-829): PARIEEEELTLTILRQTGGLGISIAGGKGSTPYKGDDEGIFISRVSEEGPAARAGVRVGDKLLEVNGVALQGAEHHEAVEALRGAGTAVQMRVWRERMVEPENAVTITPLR

## RSRSISEDV
Scribble PDZ1
  Mean fraction #NGS counts mimetic peptide / total count selection: 0
DLG1 PDZ2
  Mean fraction #NGS counts mimetic peptide / total count selection: 3.877e-6
Scribble PDZ3; mean over selections 1-3
  Mean fraction #NGS counts mimetic peptide / total count selection: 0
DLG1 PDZ1
  Mean fraction #NGS counts mimetic peptide / total count selection: 0

## RSRSISTDV
Scribble PDZ1
  Mean fraction #NGS counts wt peptide / total counts selection: 0.0001844
DLG1 PDZ2
  Mean fraction #NGS counts wt peptide / total counts selection: 0.02018
Scribble PDZ2; [1]
  Mean fraction #NGS counts wt peptide / total counts selection: 0.001899
Scribble PDZ3; mean over selections 1-3
  Mean fraction #NGS counts wt peptide / total counts selection: 0.0004544

## SARLWETSI
Scribble PDZ1
  Mean fraction #NGS counts wt peptide / total counts selection: 0.005032
Scribble PDZ3; mean over selections 1-3
  Mean fraction #NGS counts wt peptide / total counts selection: 0.08665
DLG1 PDZ1
  Mean fraction #NGS counts wt peptide / total counts selection: 5.924e-6

## SEGHTSTTL
DLG1 PDZ1
  Mean fraction #NGS counts mimetic peptide / total count selection: 5.924e-6

## SGEYLVTEV
Scribble PDZ2; mean over selections
  Mean fraction #NGS counts mimetic peptide / total count selection: 0.001329

## SGEYLVTSV
DLG1 PDZ2
  Mean fraction #NGS counts mimetic peptide / total count selection: 0
Scribble PDZ2; [1]
  Mean fraction #NGS counts mimetic peptide / total count selection: 0.001139

## SGSYLVTSV
Scribble PDZ1
  Mean fraction #NGS counts wt peptide / total counts selection: 4.38e-5
DLG1 PDZ2
  Mean fraction #NGS counts wt peptide / total counts selection: 0.0001258
DLG1 PDZ2; wild type peptide
  Mean fraction #NGS counts wt peptide / total counts selection: 0.0001258
Scribble PDZ2; [1]
  Mean fraction #NGS counts wt peptide / total counts selection: 0.0003798
Scribble PDZ2; mean over selections
  Mean fraction #NGS counts wt peptide / total counts selection: 0.0003798

## SQERMETNM
Scribble PDZ2; [1]
  Mean fraction #NGS counts mimetic peptide / total count selection: 0.007678
Scribble PDZ3; mean over selections 1-3
  Mean fraction #NGS counts mimetic peptide / total count selection: 0.0002907

## SQSRMSTNM
Scribble PDZ2; [1]
  Mean fraction #NGS counts wt peptide / total counts selection: 0
Scribble PDZ3; mean over selections 1-3
  Mean fraction #NGS counts wt peptide / total counts selection: 0

## SSGEQHTNV
DLG1 PDZ2
  Mean fraction #NGS counts mimetic peptide / total count selection: 5.744e-6
DLG1 PDZ1
  Mean fraction #NGS counts mimetic peptide / total count selection: 0

## SSGHTSTTL
DLG1 PDZ1
  Mean fraction #NGS counts wt peptide / total counts selection: 0

## SSGSQHTNV
DLG1 PDZ2
  Mean fraction #NGS counts wt peptide / total counts selection: 0.001066
DLG1 PDZ1
  Mean fraction #NGS counts wt peptide / total counts selection: 5.9593e-5

## TELTWISTL
Scribble PDZ2; [1]
  Mean fraction #NGS counts mimetic peptide / total count selection: 0.002089

## TRLEQHTDV
DLG1 PDZ2
  Mean fraction #NGS counts mimetic peptide / total count selection: 6.6203e-5
DLG1 PDZ1
  Mean fraction #NGS counts mimetic peptide / total count selection: 8.513e-6

## TRLSQHTDV
DLG1 PDZ2
  Mean fraction #NGS counts wt peptide / total counts selection: 0.0007437
DLG1 PDZ1
  Mean fraction #NGS counts wt peptide / total counts selection: 0.0004744

## TSLTWISTL
Scribble PDZ2; [1]
  Mean fraction #NGS counts wt peptide / total counts selection: 0

## VRKLPSTTL
Scribble PDZ1
  Mean fraction #NGS counts wt peptide / total counts selection: 6.957e-5
Scribble PDZ3; [2]
  Mean fraction #NGS counts wt peptide / total counts selection: 8.076e-6
Scribble PDZ3; mean over selections 1-3
  Mean fraction #NGS counts wt peptide / total counts selection: 8.076e-6

## VVHEPETEV
Scribble PDZ1
  Mean fraction #NGS counts mimetic peptide / total count selection: 4.939e-5
DLG1 PDZ1
  Mean fraction #NGS counts mimetic peptide / total count selection: 1.207e-5

## VVHTPETSV
Scribble PDZ1
  Mean fraction #NGS counts wt peptide / total counts selection: 7.859e-5
DLG1 PDZ2
  Mean fraction #NGS counts wt peptide / total counts selection: 3.877e-6
Scribble PDZ2; mean over selections
  Mean fraction #NGS counts wt peptide / total counts selection: 0
Scribble PDZ3; [2]
  Mean fraction #NGS counts wt peptide / total counts selection: 6.402e-5

## VVSERIESV
Scribble PDZ2; [1]
  Mean fraction #NGS counts mimetic peptide / total count selection: 0.0001899

## VVSERISEV
DLG1 PDZ2
  Mean fraction #NGS counts mimetic peptide / total count selection: 0.0004709
Scribble PDZ2; mean over selections
  Mean fraction #NGS counts mimetic peptide / total count selection: 0.0003798

## VVSERISSV
DLG1 PDZ2
  Mean fraction #NGS counts wt peptide / total counts selection: 0.0005322
Scribble PDZ2; [1]
  Mean fraction #NGS counts wt peptide / total counts selection: 0.003259
Scribble PDZ2; mean over selections
  Mean fraction #NGS counts wt peptide / total counts selection: 0.003259

## WVDSYYTEL
Scribble PDZ2; mean over selections
  Mean fraction #NGS counts mimetic peptide / total count selection: 0.002879
Scribble PDZ3; mean of selections 1-3, phosphomimetic peptide
  Mean fraction #NGS counts mimetic peptide / total count selection: 0.002589

## WVDSYYTSL
Scribble PDZ2; mean over selections
  Mean fraction #NGS counts wt peptide / total counts selection: 0
Scribble PDZ3; [2]
  Mean fraction #NGS counts wt peptide / total counts selection: 0.0003456

## YPAEPDSWV
DLG1 PDZ2
  Mean fraction #NGS counts mimetic peptide / total count selection: 0
Scribble PDZ2; [1]
  Mean fraction #NGS counts mimetic peptide / total count selection: 0

## YPASPDSWV
DLG1 PDZ2
  Mean fraction #NGS counts wt peptide / total counts selection: 0.0001112
Scribble PDZ2; [1]
  Mean fraction #NGS counts wt peptide / total counts selection: 0.02304

## YPGEPDEWV
DLG1 PDZ2
  Mean fraction #NGS counts mimetic peptide / total count selection: 0
DLG1 PDZ1
  Mean fraction #NGS counts mimetic peptide / total count selection: 0.01439

## YPGEPDSWV
Scribble PDZ2; [1]
  Mean fraction #NGS counts mimetic peptide / total count selection: 0

## YPGSPDEWV
Scribble PDZ2; [1]
  Mean fraction #NGS counts mimetic peptide / total count selection: 0
